Measured values taken from patent US20110112192A1, “VERFAHREN ZUR GERUCHSEXTINKTION” (priority 2007, published 2011).

How the values were obtained:
[1] = Administration of acetylcysteine after the consumption of a garlic containing meal; format: in vivo, human; conditions: ACC-fizzing tablets (Hexal) given after the meal; 50 mg female test persons (32 to 74 kg), 75 mg male test persons (52 to 98 kg); 15 tests per person
Description: 1. Administration of acetylcysteine after the consumption of a garlic containing meal Battery of tests with 15 tests per person. Dosing: 50 mg with female test persons (32 to 74 kg body weight) i. 75 mg with male test persons (52 to 98 kg body weight) In these tests, the ACC-fizzing tablets of the Hexal company were applied. The positive test results were observed each within a time window of 10 to 20 minutes after administration of the acetylcysteine.

[2] = Administration of acetylcysteine before the consumption of a garlic containing meal; format: in vivo, human; conditions: administration about 10 minutes before the meal; 50 mg female, 75 mg male test persons; 15 tests per person
Description: 2. Administration of an acetylcysteine before the consumption of a garlic containing meal Battery of tests and dosage applied the same as under 1. The administration of acetylcysteine was done about 10 minutes before the meal.

SMILES: CC(=O)N[C@@H](CS)C(=O)O [acetylcysteine]
- odor after garlic containing meal [1]: no odor in all tests
- odor formation after garlic containing meal [2]: odor formation was likewise prevented
